This experiment addresses T1, Tyrosine-protein phosphatase non-receptor type 11 (Homo sapiens, UniProt Q06124).
T1 sequence (Q06124 whole entry): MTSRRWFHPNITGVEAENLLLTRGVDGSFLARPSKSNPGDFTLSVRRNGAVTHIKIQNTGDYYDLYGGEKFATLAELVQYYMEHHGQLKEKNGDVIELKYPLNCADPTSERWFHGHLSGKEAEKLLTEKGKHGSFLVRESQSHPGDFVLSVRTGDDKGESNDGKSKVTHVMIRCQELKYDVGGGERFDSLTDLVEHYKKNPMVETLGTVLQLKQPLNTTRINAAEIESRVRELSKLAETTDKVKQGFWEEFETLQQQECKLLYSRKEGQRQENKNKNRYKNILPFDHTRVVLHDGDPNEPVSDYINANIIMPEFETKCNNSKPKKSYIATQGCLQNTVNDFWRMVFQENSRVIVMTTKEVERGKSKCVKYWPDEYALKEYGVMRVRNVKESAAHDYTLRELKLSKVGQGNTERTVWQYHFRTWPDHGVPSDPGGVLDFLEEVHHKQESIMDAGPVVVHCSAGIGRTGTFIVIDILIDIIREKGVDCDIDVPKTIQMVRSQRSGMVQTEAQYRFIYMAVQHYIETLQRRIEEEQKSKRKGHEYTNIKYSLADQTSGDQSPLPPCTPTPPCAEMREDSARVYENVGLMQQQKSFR
The experiment is described as follows: SHP2 Inhibition Enzymatic Assay. The protocol:
Assay volume of 20 μL/well was assembled in 384 well black polystyrene low-binding microplates (Greiner), using the following buffer: 60 mM HEPES pH 7.2, 75 mM NaCl, 75 mM KCl, 1 mM EDTA pH 8, 0.05% tween-20, 5 mM DTT. The SHP-2 enzyme (synthetized by Origene, Met1-Leu525, cat #TP750155) was used at a final concentration of 0.5 nM. […] SHP2 was then added together with the IRS1 peptide. 30 min post incubation, the DiFMUP substrate was added to the reaction and incubated 30 min at room temperature. […] The fluorescence was detected by a microplate reader (Envision, PerkinElmer) according to the DiFMUP excitation and emission wavelength. The lower the fluorescence the higher the SHP2 inhibition. […] The percentage inhibition is fitted against the compound dilutions with a four-parameter logistic regression.

The structures appear in SMILES notation.

Consider `NCC1(c2ccccc2F)C2CCN(c3cc4nc(Sc5ccnc(N)c5Cl)cnc4[nH]3)CC21` (centres undefined) [US20240109900, Example 59], for which the IC50 is below 500 nM. The result for `Cc1cc(C(N)=O)ncc1-c1n[nH]c2nc(N3CC[C@@H]4[C@H](C3)[C@@]4(CN)c3ccccc3F)cnc12` [US20240109900, Example 307] reads below 500 nM; that for `Cc1c(-c2n[nH]c3nc(N4CC[C@@H]5[C@H](C4)[C@@]5(CN)c4cc(F)cc(F)c4)cnc23)ccc2nn(C)cc12` [US20240109900, Example 308], below 500 nM; that for `N#CNC(=O)c1ccc(-c2n[nH]c3nc(N4CC[C@@H]5[C@H](C4)[C@@]5(CN)c4ccccc4F)cnc23)c(Cl)c1` [US20240109900, Example 310], below 500 nM. The result for `NC[C@]1(c2ccccc2F)[C@@H]2CCN(c3cnc4c(-c5ccc(-c6cc(F)c(O)c(F)c6)cc5Cl)n[nH]c4n3)C[C@@H]21` [US20240109900, Example 313] reads below 500 nM; that for `NC[C@]1(c2ccccc2F)[C@@H]2CCN(c3cnc4c(-c5ccc(F)c6c(=O)[nH]ccc56)n[nH]c4n3)C[C@@H]21` [US20240109900, Example 314], below 500 nM; that for `Cc1c(-c2n[nH]c3nc(N4CC[C@@H]5[C@H](C4)[C@@]5(CN)c4ccccc4F)cnc23)ccc2c1ncn2C` [US20240109900, Example 318], below 500 nM. `NC[C@]1(c2ccccc2F)[C@@H]2CCN(c3cnc4c(-c5ccc6c(N)nccc6c5)n[nH]c4n3)C[C@@H]21` [US20240109900, Example 319] returned an IC50 below 500 nM. Compound `CN1CCOc2ccc(-c3n[nH]c4nc(N5CC[C@@H]6[C@H](C5)[C@@]6(CN)c5ccccc5F)cnc34)c(Cl)c21` [US20240109900, Example 321] displayed an IC50 below 500 nM. The result for `NC[C@]1(c2ccccc2F)[C@@H]2CCN(c3cnc4c(-c5ccc(CC(N)=O)cc5Cl)n[nH]c4n3)C[C@@H]21` [US20240109900, Example 328] reads below 500 nM. The same measure for `NC[C@]1(c2ccccc2F)[C@@H]2CCN(c3nc4nc(Sc5ccnc(-n6cccn6)c5Cl)cnc4[nH]3)C[C@@H]21` [US20240109900, Example 342]: below 500 nM; for `COc1nccc2cc(-c3n[nH]c4nc(N5CC[C@@H]6[C@H](C5)[C@@]6(CN)c5ccccc5F)cnc34)ccc12` [US20240109900, Example 352]: below 500 nM; for `Cc1nc2ccc(-c3n[nH]c4nc(N5CC[C@@H]6[C@H](C5)[C@@]6(CN)c5ccccc5F)cnc34)c(Cl)c2n1C` [US20240109900, Example 358]: below 500 nM. The same measure for `NC[C@]1(c2ccccc2F)[C@@H]2CCN(c3cnc4c(-c5ccc6nn(CCO)cc6c5Cl)n[nH]c4n3)C[C@@H]21` [US20240109900, Example 365]: below 500 nM; for `CC(C)(C)C#Cc1n[nH]c2nc(N3CC[C@@H]4[C@H](C3)[C@@]4(CN)c3ccccc3F)cnc12` [US20240109900, Example 366]: below 500 nM. Take `NC[C@]1(c2ccccc2F)[C@@H]2CCN(c3cnc4c(-c5ccc(-c6nsc(O)n6)cc5Cl)n[nH]c4n3)C[C@@H]21` [US20240109900, Example 379]: the IC50 was below 500 nM. The same measure for `NC[C@]1(c2ccsn2)[C@@H]2CN(c3cnc4c(-c5ccc6nn(C(F)F)cc6c5Cl)n[nH]c4n3)C[C@@H]21` [US20240109900, Example 468]: below 500 nM; for `Cc1csc([C@@]2(CN)[C@@H]3CN(c4cnc5c(-c6ccnc(C)c6F)n[nH]c5n4)C[C@@H]32)n1` [US20240109900, Example 477]: below 500 nM; for `Cc1csc([C@@]2(CN)[C@@H]3CCN(c4cnc5c(-c6ccc(F)c7ncccc67)c[nH]c5n4)C[C@@H]32)n1` [US20240109900, Example 502]: below 500 nM.

Consider `Cc1csc([C@@]2(CN)[C@@H]3CN(c4cnc5c(-c6ccc7c(c6)CC(=O)N7C)n[nH]c5n4)C[C@@H]32)n1` [US20240109900, Example 513], for which the IC50 is below 500 nM. The same measure for `Cc1csc([C@@]2(CN)[C@@H]3CN(c4cnc5c(-c6ccnc(-n7cccn7)c6Cl)n[nH]c5n4)C[C@@H]32)n1` [US20240109900, Example 516]: below 500 nM; for `Cc1csc([C@@]2(CN)[C@@H]3CN(c4cnc(Sc5ccnc(-n6cccn6)c5Cl)cn4)C[C@@H]32)n1` [US20240109900, Example 520]: below 500 nM; for `Cc1csc([C@@]2(CN)[C@@H]3CN(c4nc(C)n(-c5cccc(Cl)c5Cl)c(=O)c4Cl)C[C@@H]32)n1` [US20240109900, Example 526]: below 500 nM. The same measure for `NC[C@]1(c2cc(F)ccc2F)[C@@H]2CCN(c3cnc4c(-c5cccc6c5CCC(=O)N6)n[nH]c4n3)C[C@@H]21` [US20240109900, Example 531]: below 500 nM.

The values above are taken from BindingDB's records for patent US20240109900 (IRBM, 2024).
